Test system: 616215-338-R-J1-PDC complex spheroid viability
Assay: Anticancer human tumor 616215-338-R-J1-PDC patient-derived colon adenocarcinoma cell line growth inhibition [RAS]
Details: for IC50: curve of first compound; for viability, T/C: stronger effect = lower value
Summary of the method: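 Multi-cell-type spheroids: tumor cells plus HUVEC endothelial cells and mesenchymal stem cells. RAS-pathway inhibitors were combined with targeted agents, each dosed in half-log steps down from clinical Cmax, or from 10 microM when Cmax was unknown.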

[1] = second compound 0.000949 µM, first compound 0.0316 µM
[2] = second compound 0.000949 µM, first compound 0.1 µM
[3] = second compound 0.000949 µM, first compound 0.316 µM
[4] = second compound 0.000949 µM, first compound 1 µM
[5] = second compound 0.003 µM, first compound 0.0316 µM
[6] = second compound 0.003 µM, first compound 0.1 µM
[7] = second compound 0.003 µM, first compound 0.316 µM
[8] = second compound 0.003 µM, first compound 1 µM
[9] = second compound 0.00949 µM, first compound 0.0316 µM
[10] = second compound 0.00949 µM, first compound 0.1 µM
[11] = second compound 0.00949 µM, first compound 0.316 µM
[12] = second compound 0.00949 µM, first compound 1 µM
[13] = second compound 0.03 µM, first compound 0.0316 µM
[14] = second compound 0.03 µM, first compound 0.1 µM
[15] = second compound 0.03 µM, first compound 0.316 µM
[16] = second compound 0.03 µM, first compound 1 µM
[17] = second compound 0.0949 µM, first compound 0.0316 µM
[18] = second compound 0.0949 µM, first compound 0.1 µM
[19] = second compound 0.0949 µM, first compound 0.316 µM
[20] = second compound 0.0949 µM, first compound 1 µM
[21] = second compound 0.3 µM, first compound 0.0316 µM
[22] = second compound 0.3 µM, first compound 0.1 µM
[23] = second compound 0.3 µM, first compound 0.316 µM
[24] = second compound 0.3 µM, first compound 1 µM
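Also: spheroids exposed to agents for seven days before viability readout.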
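For viability, T/C in this document: 100% = DMSO vehicle control viability.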

CCN1CCN(Cc2ccc(Nc3ncc(F)c(-c4cc(F)c5nc(C)n(C(C)C)c5c4)n3)nc2)CC1 + CCn1c(-c2cc(N3CCN(C)CC3)cnc2C(C)OC)c2c3cc(ccc31)-c1csc(n1)CC(NC(=O)C1CC1C)C(=O)N1CCCC(N1)C(=O)OCC(C)(C)C2
IC50 (second compound 0.000949 µM): > 1000 nM
IC50 (second compound 0.003 µM): 695 nM
IC50 (second compound 0.00949 µM): 112 nM
IC50 (second compound 0.03 µM): < 3.16 nM
IC50 (second compound 0.0949 µM): < 3.16 nM
IC50 (second compound 0.3 µM): < 3.16 nM
viability, T/C (second compound 0.000949 µM, first compound 0.00316 µM): 102%
viability, T/C (second compound 0.000949 µM, first compound 0.01 µM): 108%
viability, T/C [1]: 110%
viability, T/C [2]: 123%
viability, T/C [3]: 130%
viability, T/C [4]: 57.2%
viability, T/C (second compound 0.003 µM, first compound 0.00316 µM): 104%
viability, T/C (second compound 0.003 µM, first compound 0.01 µM): 112%
viability, T/C [5]: 111%
viability, T/C [6]: 120%
viability, T/C [7]: 75.3%
viability, T/C [8]: 38.4%
viability, T/C (second compound 0.00949 µM, first compound 0.00316 µM): 82.2%
viability, T/C (second compound 0.00949 µM, first compound 0.01 µM): 64%
viability, T/C [9]: 59.9%
viability, T/C [10]: 51.3%
viability, T/C [11]: 49.5%
viability, T/C [12]: 26.6%
viability, T/C (second compound 0.03 µM, first compound 0.00316 µM): 51%
viability, T/C (second compound 0.03 µM, first compound 0.01 µM): 38.1%
viability, T/C [13]: 39.4%
viability, T/C [14]: 32.5%
viability, T/C [15]: 33.4%
viability, T/C [16]: 27.5%
viability, T/C (second compound 0.0949 µM, first compound 0.00316 µM): 33.2%
viability, T/C (second compound 0.0949 µM, first compound 0.01 µM): 32.3%
viability, T/C [17]: 26.7%
viability, T/C [18]: 25.8%
viability, T/C [19]: 34.5%
viability, T/C [20]: 29.8%
viability, T/C (second compound 0.3 µM, first compound 0.00316 µM): 34.5%
viability, T/C (second compound 0.3 µM, first compound 0.01 µM): 32.2%
viability, T/C [21]: 30.3%
viability, T/C [22]: 33.1%
viability, T/C [23]: 35.9%
viability, T/C [24]: 25.3%

C[C@@H](NC(=O)c1ncnc(N)c1Cl)c1ncc(C(=O)Nc2cc(C(F)(F)F)c(Cl)cn2)s1 + CCn1c(-c2cc(N3CCN(C)CC3)cnc2C(C)OC)c2c3cc(ccc31)-c1csc(n1)CC(NC(=O)C1CC1C)C(=O)N1CCCC(N1)C(=O)OCC(C)(C)C2
IC50 (second compound 0.000949 µM): 8750 nM
IC50 (second compound 0.003 µM): 6940 nM
IC50 (second compound 0.00949 µM): 1570 nM
IC50 (second compound 0.03 µM): 243 nM
IC50 (second compound 0.0949 µM): < 31.6 nM
IC50 (second compound 0.3 µM): < 31.6 nM
viability, T/C [1]: 102%
viability, T/C [2]: 104%
viability, T/C [3]: 117%
viability, T/C [4]: 105%
viability, T/C (second compound 0.000949 µM, first compound 3.16 µM): 96.3%
viability, T/C (second compound 0.000949 µM, first compound 10 µM): 43.9%
viability, T/C [5]: 114%
viability, T/C [6]: 129%
viability, T/C [7]: 102%
viability, T/C [8]: 87.2%
viability, T/C (second compound 0.003 µM, first compound 3.16 µM): 66.2%
viability, T/C (second compound 0.003 µM, first compound 10 µM): 42.6%
viability, T/C [9]: 95.3%
viability, T/C [10]: 78%
viability, T/C [11]: 72.5%
viability, T/C [12]: 61%
viability, T/C (second compound 0.00949 µM, first compound 3.16 µM): 35.8%
viability, T/C (second compound 0.00949 µM, first compound 10 µM): 21.4%
viability, T/C [13]: 58.9%
viability, T/C [14]: 62.2%
viability, T/C [15]: 42.3%
viability, T/C [16]: 41.1%
viability, T/C (second compound 0.03 µM, first compound 3.16 µM): 30%
viability, T/C (second compound 0.03 µM, first compound 10 µM): 25.1%
viability, T/C [17]: 41.9%
viability, T/C [18]: 57.1%
viability, T/C [19]: 38.5%
viability, T/C [20]: 33.2%
viability, T/C (second compound 0.0949 µM, first compound 3.16 µM): 23.2%
viability, T/C (second compound 0.0949 µM, first compound 10 µM): 16.6%
viability, T/C [21]: 36.3%
viability, T/C [22]: 35.6%
viability, T/C [23]: 39%
viability, T/C [24]: 33.7%
viability, T/C (second compound 0.3 µM, first compound 3.16 µM): 22.6%
viability, T/C (second compound 0.3 µM, first compound 10 µM): 13.2%
